Test results taken from patent US20110130460A1, “INCREASED CREATINE RETENTION WITH SOLUBLE FIBRES” (priority 2007, published 2011).

Assays:
[1] = Urinary creatine and creatinine excretion after a single 2 g creatine dose; details: whatever the form, excretion slightly less than 1 g/24 h
Description: (§1) The health status questionnaire was filled in again.
An aliquot (10 mL) was stored at −20° C.

[2] = Plasma creatine kinetics after a single 2 g creatine dose (one-open compartmental model); type: in vivo, human
Description: as §1
(§2) Venous blood was collected on heparin as an anticoagulant. The tubes were placed immediately on ice and centrifuged at 3000 g for 6 min at 4° C. Plasma (900 μL) was deproteinized with sulfosalicylic acid 5% (300 μL) and centrifuged again at 3000 g for 6min. NaOH 0.1M (90 μL) was added to supernatant (300 μL) to obtain a pH value of about 7.8. Samples were stored at −20° C.
(§3) An aliquot (10 mL) was stored at −20° C. […] An aliquot was stored at −80° C.
Using a Marquardt algorithm, all kinetics were fitted with the following equation:
C(FD/V*(ka/(ka−kel))*(exp(−kel*(t−tlag))−exp(−ka*(t−tlag)))) (equation 1)
where C is the plasma creatine concentration minus the basal concentration (μM) • if C 0, then data were removed • F is the bioavailability • D is the dose (2 g or 15 300 μmol) • is the volume of distribution • ka is the velocity constant of absorption (first order, h^−1) • kel is the velocity constant of elimination (first order, h^−1) • t is the time (h) • tlag is the lag-time (h)
This equation corresponds to a one-open compartmental model in which ka, kel and tlag are the primary parameters. Knowing their value, new kinetic parameters of plasma creatine were calculated:
AUCO,∞:the area under the curve integrated from zero to infinity
Since the bioavailability (F) may not be measured, only the apparent volume of distribution and the apparent clearance can be estimated:
Vd: the apparent volume of distribution (Vd=V/F, L)
C: the apparent clearance (Cl=Kel·Vd, L.h^−1)

[3] = Plasma and erythrocyte creatine and creatinine after one week creatine supplementation (3×2 g per day); type: in vivo, human
Description: as §1, §2
After the first centrifugation, erythrocytes were washed twice with a similar volume of physiological water (0.9% NaCl, centrifugation: 1000 g, 5 min, 4° C.). After three frozen and defrozen procedures, erythrocytes (300 μL) were deproteinized with sulfosalicylic acid 5% (600 μL) and then centrifuged at 3000 g during 6 min. Supernatant was collected and centrifuged again. The clear supernatant was neutralized with NaOH 0.1M.
as §3

[4] = Creatine and creatinine in 24 h feces by HPLC; type: in vivo, human; details: basal or supplemented, could not be quantified
Description: as §1, §3
Both creatine and creatinine content in feces was analyzed by HPLC at 205 nm. After dilution of a feces aliquot in 0.045M ammonium sulfate containing an internal standard (4-[2-aminoethyl]-benzene sulfonamide), the sample was filtered on a 10 kDa membrane. The following conditions were used to identify creatine: 2 Beckman RP-C18 Ultrasphere ODS columns 5μ 25 cm*4.6 mm; elution: A/B (70/30) with 0.05% anhydrous trifluoroacetic acid (TFA) at 1.0 mL/min; A: 0.1% H3PO4 in deionised H2O; B: 1.4 mg sodium dodecylsulfate/mL acetonitril. […] The values reported for creatine in the results section correspond to highest possible estimates including a probable overestimation.

[5] = Questionnaire on side effects after creatine supplementation; type: in vivo, human; details: after each period of one week creatine supplementation vs initial visit
Description: as §1

[6] = 21 g/d creatine for 2 weeks; levels within the normal range; cited from earlier work

- Creatinine urinary excretion, effect of creatine ingestion [1]: not affected
- apparent volume of distribution relative to body mass ([2]; after ingestion of 2 g creatine, not influenced by the form ingested): about 75 % of body mass
- change of plasma creatinine concentration after single dose ([2]; eight hours following ingestion of 2 g creatine, independent of treatment, basal 53.5±1.50 μM): changed by only a few μM
- half-life ([2]; human, plasma, oral, after ingestion of 2 g creatine, mean over the forms, read-out: mean half-life of elimination (converted)): 1.09 ± 0.06 h
- erythrocyte creatinine concentration during the experiment ([3]; basal about 25 μM): remained stable
- plasma creatine concentration after supplementation, fold higher ([3]; one week, 3×2 g per day, fasted state, post vs pre): 11±2.5 fold
- increase of erythrocyte creatine concentration after supplementation ([3]; one week, 3×2 g per day, independent of the form ingested): 88±22%
- maximal estimated value of creatine in feces [4]: ≤ 50±5.7 μg per gram fresh feces
Structure (SMILES): CN(CC(=O)O)C(=N)N [creatine]
- frequency of declared health troubles (side effects) [5]: No difference was observed in the frequency of declared health troubles except for muscle cramps which were less frequently reported
- excretion of methylamine and formaldehyde [6]: increased excretion of methylamine and formaldehyde
